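Compound exposure: 48 hours, 5 concentrations, 96-well plates. Abbreviation: GI50, concentration required for 50% inhibition of growth.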 Activity calls are given as the source filed them. Rule as the data show it: active = GI50 up to about 1.1 µM and inactive = higher.

Results on twelve compounds are retold here after ChEMBL document CHEMBL1201862, “PubChem BioAssay data set” (2004).

Among the test systems are 786-0; A498; A549; CCRF-CEM; EKVX; LOX IMVI; M14; Malme-3M; NCI-H23; OVCAR-4; OVCAR-8; SK-MEL-2; SN12C; TK-10; UACC-62; UO-31; NCI-H226; SK-MEL-28.
Common to all, as to assay: growth of human tumour cells (NCI), 48 h

On to `O=C1C=CC=CC2CC=C[C@@H](O)C12` (stereo partly drawn), for which the GI50 is 17.2 µM (inactive) in the test on 786-0; 15.9 µM (inactive) in the test on A498; 26.2 µM (inactive) in the test with A549; 15.3 µM (inactive) in the test with CCRF-CEM; 24.5 µM (inactive) in the test with EKVX; 15.6 µM (inactive) in the test on LOX IMVI. The GI50 in the test with M14 is 18.7 µM (inactive); in the test with Malme-3M, 21.3 µM (inactive); in the test on NCI-H23 it was > 10 µM (inactive); in the test with OVCAR-4 it was 31 µM (inactive); with OVCAR-8, 29.6 µM (inactive); with SK-MEL-2 it was 22.1 µM (inactive). Also, the GI50 in the test with SN12C is 22.4 µM (inactive); in the test with TK-10, 32.4 µM (inactive); with UACC-62 it was 17.8 µM (inactive); in the test with UO-31, 16.4 µM (inactive).

Consider `CC1=C(C)C(=O)c2c(cc3ccc4ccccc4n23)C1=O`, for which the GI50 in the test on 786-0, in the test on A498, in the test on A549, with CCRF-CEM, with EKVX and with LOX IMVI was > 100 µM (inactive) each time. In addition, the GI50 in the test on M14, with Malme-3M, in the test on NCI-H226, in the test on NCI-H23, in the test on OVCAR-4 and in the test with OVCAR-8 was > 100 µM (inactive) throughout. The GI50 in the test with SK-MEL-28, in the test on SN12C, with TK-10, with UACC-62 and in the test on UO-31 was > 100 µM (inactive) in each case.

With `CC1CCP(=O)(c2ccccc2)CC1` (stereo not drawn), the GI50 in the test with 786-0 was > 100 µM (inactive); with A498, > 10 µM (inactive); in the test on A549 it was > 100 µM (inactive); with CCRF-CEM, > 100 µM (inactive); with EKVX, > 100 µM (inactive); in the test on LOX IMVI it was > 100 µM (inactive). Besides, the GI50 with M14, in the test on Malme-3M, in the test on NCI-H23, with OVCAR-4, with OVCAR-8 and with SK-MEL-28 was > 100 µM (inactive) each time. For the same compound, the GI50 in the test with SK-MEL-2, in the test on SN12C, with TK-10, with UACC-62 and with UO-31 was > 100 µM (inactive) each time.

On to `COc1ccc2c(CCNC(C)=O)c(C(C)=O)[nH]c2c1`, for which the GI50 in the test on 786-0, in the test on A498, in the test on A549, in the test on CCRF-CEM, with EKVX and in the test with LOX IMVI was > 100 µM (inactive) throughout. Moreover, the GI50 with M14 is > 100 µM (inactive); in the test on NCI-H226 it was 71.4 µM (inactive); in the test on NCI-H23, > 10 µM (inactive); in the test with OVCAR-4 it was > 100 µM (inactive); with OVCAR-8, > 100 µM (inactive); with SK-MEL-28, > 100 µM (inactive). The GI50 with SK-MEL-2, in the test with SN12C, with TK-10, in the test with UACC-62 and with UO-31 was > 100 µM (inactive) throughout.

`CSc1nc2[nH]c(=O)c(C)nc2c(=O)[nH]1`: the GI50 with 786-0, in the test on A498, in the test on A549, with CCRF-CEM, in the test with EKVX and in the test with LOX IMVI was > 100 µM (inactive) each time. The GI50 in the test on M14, in the test with Malme-3M, in the test on NCI-H23, in the test with OVCAR-4, in the test on OVCAR-8 and in the test on SK-MEL-28 was > 100 µM (inactive) each time. In addition, the GI50 in the test on SK-MEL-2, in the test on SN12C, in the test with TK-10, in the test on UACC-62 and in the test with UO-31 was > 100 µM (inactive) in each case.

Take `CC(C(=O)c1ccccc1)C1(O)C(=O)Nc2ccc(Cl)cc21` (stereo not drawn): the GI50 in the test on 786-0 is 40.3 µM (inactive); with A498, > 100 µM (inactive); in the test with A549, > 100 µM (inactive); in the test on EKVX, > 100 µM (inactive); with LOX IMVI it was 50.6 µM (inactive); in the test with M14, > 100 µM (inactive). For the same compound, the GI50 in the test with Malme-3M was > 100 µM (inactive); with NCI-H226 it was > 100 µM (inactive); in the test on NCI-H23, > 100 µM (inactive); in the test on OVCAR-4, 19.2 µM (inactive); in the test on OVCAR-8, > 100 µM (inactive); in the test on SK-MEL-28, > 100 µM (inactive). Moreover, the GI50 in the test on SK-MEL-2 was > 100 µM (inactive); with SN12C, > 100 µM (inactive); with TK-10, > 100 µM (inactive); in the test with UACC-62, 42.2 µM (inactive); with UO-31, 0.469 µM (active).

Turning to `COC(=O)C1C(=O)O[C@@H](c2ccc(OC)cc2)C1C(=O)OC` (stereo partly drawn), the GI50 in the test on 786-0 was > 100 µM (inactive); in the test with A498 it was 52.4 µM (inactive); in the test with A549, > 100 µM (inactive); in the test on CCRF-CEM it was > 100 µM (inactive); in the test with EKVX, > 100 µM (inactive); in the test on LOX IMVI it was > 100 µM (inactive). For the same compound, the GI50 in the test on M14, with Malme-3M, in the test with NCI-H226, in the test on NCI-H23, in the test with OVCAR-4 and in the test with OVCAR-8 was > 100 µM (inactive) each time. Also, the GI50 with SK-MEL-28, in the test with SN12C, in the test on TK-10, in the test on UACC-62 and in the test on UO-31 was > 100 µM (inactive) throughout.

For the compound `CCN(CC)c1ccc(/N=C2/C=CC(=O)c3ncccc32)c(C)c1`, the GI50 with 786-0 is 5.02 µM (inactive); with A549 it was 11.2 µM (inactive); with CCRF-CEM it was 2.09 µM (inactive); in the test on EKVX it was 16.6 µM (inactive); in the test on LOX IMVI it was 1.91 µM (inactive); in the test with M14, 3.02 µM (inactive). The GI50 was 3.82 µM (inactive) in the test with Malme-3M; 18.5 µM (inactive) with NCI-H226; 5.94 µM (inactive) with NCI-H23; 2.11 µM (inactive) in the test on OVCAR-4; 3.42 µM (inactive) with OVCAR-8; 11.8 µM (inactive) in the test on SK-MEL-28. For the same compound, the GI50 in the test on SK-MEL-2 was 15.1 µM (inactive); in the test on SN12C, 7.38 µM (inactive); in the test on TK-10 it was 16.3 µM (inactive); in the test with UACC-62 it was 5.06 µM (inactive); with UO-31, 16.6 µM (inactive).

For `O=C1CCN2C(=O)CCN12`, the GI50 in the test on 786-0, in the test on A498, in the test on A549, in the test on CCRF-CEM, in the test on EKVX and in the test on M14 was > 100 µM (inactive) each time. Moreover, the GI50 in the test with Malme-3M, in the test with NCI-H226, in the test on NCI-H23, in the test on OVCAR-4, in the test on OVCAR-8 and in the test with SK-MEL-28 was > 100 µM (inactive) throughout. The GI50 in the test with SK-MEL-2, with SN12C, in the test on TK-10, with UACC-62 and in the test with UO-31 was > 100 µM (inactive) throughout.

In the case of `CCN(CC)CCNC(=O)c1ccccc1Nc1c(Cl)cccc1Cl`, the GI50 was 6.34 µM (inactive) in the test on 786-0; 17 µM (inactive) in the test on A549; 14.1 µM (inactive) in the test with CCRF-CEM; 12.7 µM (inactive) with EKVX; 11.3 µM (inactive) in the test with LOX IMVI; 18.1 µM (inactive) with M14. Also, the GI50 with NCI-H226 is 17.8 µM (inactive); in the test on NCI-H23, 18.2 µM (inactive); with OVCAR-4 it was 14.8 µM (inactive); in the test with OVCAR-8, 16.4 µM (inactive); with SK-MEL-28 it was 18.3 µM (inactive); in the test with SN12C, 13.7 µM (inactive). Besides, the figures for the GI50 in the test on TK-10, with UACC-62 and in the test with UO-31 were 12.1 µM (inactive), 17.1 µM (inactive) and 9.95 µM (inactive), respectively.

As to `O=C(O)c1ccccc1NS(=O)(=O)c1ccc([N+](=O)[O-])cc1`, the GI50 with 786-0, in the test with A549, with CCRF-CEM, in the test on EKVX, in the test with LOX IMVI and in the test on M14 was > 100 µM (inactive) in each case. Also, the GI50 in the test with Malme-3M, with NCI-H226, with NCI-H23, in the test with OVCAR-4, in the test with OVCAR-8 and with SK-MEL-28 was > 100 µM (inactive) throughout. Also, the GI50 in the test with SK-MEL-2, in the test with SN12C, in the test on TK-10, with UACC-62 and in the test on UO-31 was > 100 µM (inactive) in each case.

Regarding `CC(=O)NNc1nc(C)c(C(=O)/C=C/c2ccc(Cl)cc2)s1`, the GI50 was > 100 µM (inactive) in the test with 786-0; > 100 µM (inactive) in the test with A498; > 100 µM (inactive) with A549; > 100 µM (inactive) with CCRF-CEM; 57.7 µM (inactive) with EKVX; > 100 µM (inactive) with LOX IMVI. Besides, the GI50 with Malme-3M, in the test with NCI-H23, in the test on OVCAR-8, in the test on SK-MEL-28, in the test on SK-MEL-2 and in the test on TK-10 was > 100 µM (inactive) throughout. Moreover, the GI50 in the test with UACC-62 and in the test with UO-31 was > 100 µM (inactive) in each case.
